Measurements reported in ChEMBL document CHEMBL1201862, “PubChem BioAssay data set” (2004).
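Cultured in 96-well plates, cells were exposed to test compound for 48 hours across five concentrations. At the GI50, growth is halved.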 Activity calls are given as the source filed them. Rule as the data show it: active = GI50 up to about 1.1 µM and inactive = higher.

Assays:
Test in all cases: NCI anticancer screen, dose series, 48 h
NCI-H522 = system: NCI-H522
RPMI-8226 = system: RPMI-8226
IGROV-1 = system: IGROV-1
A549 = system: A549
SNB-75 = system: SNB-75
LXFL 529 = system: LXFL 529
SR = system: SR
EKVX = system: EKVX
M14 = system: M14
KM12 = system: KM12
COLO 205 = system: COLO 205
SK-MEL-2 = system: SK-MEL-2
DLD-1 = system: DLD-1
OVCAR-8 = system: OVCAR-8
SW-620 = system: SW-620
DMS-114 = system: DMS-114
UACC-62 = system: UACC-62
SF-539 = system: SF-539
SF-295 = system: SF-295
NCI-H460 = system: NCI-H460
KM-20L2 = system: KM-20L2
NCI-H23 = system: NCI-H23
XF498 = system: XF498
HT-29 = system: HT-29
HCT-15 = system: HCT-15
SK-OV-3 = system: SK-OV-3
CCRF-CEM = system: CCRF-CEM
NCI-H226 = system: NCI-H226
HCT-116 = system: HCT-116
SK-MEL-28 = system: SK-MEL-28
A498 = system: A498
HL-60 = system: HL-60
M19-MEL = system: M19-MEL
ACHN = system: ACHN
K562 = system: K562
SK-MEL-5 = system: SK-MEL-5
HOP-18 = system: HOP-18
RXF 393 = system: RXF 393
HOP-92 = system: HOP-92
SNB-19 = system: SNB-19
786-0 = system: 786-0
HOP-62 = system: HOP-62
SNB-78 = system: SNB-78
UO-31 = system: UO-31
OVCAR-3 = system: OVCAR-3
TK-10 = system: TK-10
OVCAR-5 = system: OVCAR-5
SF-268 = system: SF-268
LOX IMVI = system: LOX IMVI
SN12C = system: SN12C
Malme-3M = system: Malme-3M
UACC-257 = system: UACC-257
HCC 2998 = system: HCC 2998
DMS-273 = system: DMS-273
U-251 = system: U-251
MOLT-4 = system: MOLT-4
OVCAR-4 = system: OVCAR-4

## C[C@]12CCC3c4ccc(OC(=O)c5ccccc5)cc4CC[C@H]3C1CC[C@@H]2OC(=O)C12OC1CCC2=O (stereo partly specified)
NCI-H522
  GI50: 2.31 µM (inactive)
RPMI-8226
  GI50: 4.23 µM (inactive)
IGROV-1
  GI50: 4.63 µM (inactive)
A549
  GI50: 5.64 µM (inactive)
SNB-75
  GI50: 13.7 µM (inactive)
LXFL 529
  GI50: 1.91 µM (inactive)
SR
  GI50: 3.31 µM (inactive)
EKVX
  GI50: 6.61 µM (inactive)
M14
  GI50: 5.79 µM (inactive)
KM12
  GI50: 6.93 µM (inactive)
COLO 205
  GI50: 2.84 µM (inactive)
SK-MEL-2
  GI50: 7.94 µM (inactive)
DLD-1
  GI50: 2.47 µM (inactive)
OVCAR-8
  GI50: 4.53 µM (inactive)
SW-620
  GI50: 2.64 µM (inactive)
DMS-114
  GI50: 2.6 µM (inactive)
UACC-62
  GI50: 15.6 µM (inactive)
SF-539
  GI50: 2.34 µM (inactive)
SF-295
  GI50: 12.3 µM (inactive)
NCI-H460
  GI50: 4.26 µM (inactive)
KM-20L2
  GI50: 5.89 µM (inactive)
NCI-H23
  GI50: 4.73 µM (inactive)
XF498
  GI50: 5.82 µM (inactive)
HT-29
  GI50: 3.34 µM (inactive)
HCT-15
  GI50: 5.55 µM
SK-OV-3
  GI50: 15.8 µM (inactive)
CCRF-CEM
  GI50: 0.959 µM (active)
NCI-H226
  GI50: 14.9 µM (inactive)
HCT-116
  GI50: 3.03 µM (inactive)
SK-MEL-28
  GI50: 6.11 µM (inactive)
A498
  GI50: 6.04 µM (inactive)
HL-60
  GI50: 1.9 µM (inactive)
M19-MEL
  GI50: 5.96 µM (inactive)
ACHN
  GI50: 5.27 µM (inactive)
K562
  GI50: 2.07 µM (inactive)
SK-MEL-5
  GI50: 4.69 µM (inactive)
HOP-18
  GI50: 5.71 µM (inactive)
RXF 393
  GI50: 2.41 µM (inactive)
HOP-92
  GI50: 19.7 µM (inactive)
SNB-19
  GI50: 20.5 µM (inactive)
786-0
  GI50: 2.67 µM (inactive)
HOP-62
  GI50: 6.21 µM (inactive)
SNB-78
  GI50: 6.34 µM (inactive)
UO-31
  GI50: 5.75 µM (inactive)
OVCAR-3
  GI50: 3.13 µM (inactive)
TK-10
  GI50: 18.7 µM (inactive)
OVCAR-5
  GI50: 8.38 µM (inactive)
SF-268
  GI50: 2.68 µM (inactive)
LOX IMVI
  GI50: 3.33 µM (inactive)
SN12C
  GI50: 5.9 µM (inactive)
Malme-3M
  GI50: 5.85 µM (inactive)
UACC-257
  GI50: 5.81 µM (inactive)
HCC 2998
  GI50: 23.7 µM (inactive)
DMS-273
  GI50: 5.01 µM (inactive)
U-251
  GI50: 2.8 µM (inactive)
MOLT-4
  GI50: 2.32 µM (inactive)
OVCAR-4
  GI50: 5.41 µM (inactive)

## COc1ccc(C)cc1C1CCC(=O)O1 (stereo unspecified)
NCI-H522
  GI50: > 100 µM (inactive)
RPMI-8226
  GI50: > 100 µM (inactive)
IGROV-1
  GI50: > 100 µM (inactive)
A549
  GI50: > 100 µM (inactive)
SNB-75
  GI50: > 100 µM (inactive)
LXFL 529
  GI50: > 100 µM (inactive)
SR
  GI50: > 100 µM (inactive)
EKVX
  GI50: > 100 µM (inactive)
M14
  GI50: > 100 µM (inactive)
KM12
  GI50: > 100 µM (inactive)
COLO 205
  GI50: > 100 µM (inactive)
SK-MEL-2
  GI50: > 100 µM (inactive)
DLD-1
  GI50: > 100 µM (inactive)
OVCAR-8
  GI50: > 100 µM (inactive)
SW-620
  GI50: > 100 µM (inactive)
DMS-114
  GI50: > 100 µM (inactive)
UACC-62
  GI50: > 100 µM (inactive)
SF-539
  GI50: > 100 µM (inactive)
SF-295
  GI50: > 100 µM (inactive)
NCI-H460
  GI50: > 100 µM (inactive)
KM-20L2
  GI50: > 100 µM (inactive)
NCI-H23
  GI50: > 100 µM (inactive)
XF498
  GI50: 63.8 µM (inactive)
HT-29
  GI50: > 100 µM (inactive)
HCT-15
  GI50: > 100 µM
SK-OV-3
  GI50: > 100 µM (inactive)
CCRF-CEM
  GI50: > 100 µM (inactive)
NCI-H226
  GI50: > 100 µM (inactive)
HCT-116
  GI50: > 100 µM (inactive)
SK-MEL-28
  GI50: > 100 µM (inactive)
A498
  GI50: > 100 µM (inactive)
HL-60
  GI50: > 100 µM (inactive)
M19-MEL
  GI50: > 100 µM (inactive)
ACHN
  GI50: > 100 µM (inactive)
K562
  GI50: > 100 µM (inactive)
SK-MEL-5
  GI50: > 100 µM (inactive)
HOP-18
  GI50: > 100 µM (inactive)
RXF 393
  GI50: > 100 µM (inactive)
SNB-19
  GI50: > 100 µM (inactive)
786-0
  GI50: > 100 µM (inactive)
HOP-62
  GI50: > 100 µM (inactive)
SNB-78
  GI50: > 100 µM (inactive)
UO-31
  GI50: > 100 µM (inactive)
OVCAR-3
  GI50: > 100 µM (inactive)
TK-10
  GI50: > 100 µM (inactive)
OVCAR-5
  GI50: > 100 µM (inactive)
LOX IMVI
  GI50: > 100 µM (inactive)
SN12C
  GI50: > 100 µM (inactive)
Malme-3M
  GI50: > 100 µM (inactive)
UACC-257
  GI50: > 100 µM (inactive)
HCC 2998
  GI50: > 100 µM (inactive)
DMS-273
  GI50: > 100 µM (inactive)
U-251
  GI50: > 100 µM (inactive)
MOLT-4
  GI50: > 100 µM (inactive)
